Each block holds one compound with its values, some of them ahead of it.
Columns and labels:
proteasome = settings: read-out: reported IC50 for proteasome inhibition; cited from earlier work
[1] = test system: bortezomib-resistant THP-1 cell line (BTZ500); assay: Cell viability, bortezomib-resistant THP-1 cell line; format: cell-based, human
[2] = conversion to inactive aromatic imidazole 5; ref 13b; cited from earlier work
[3] = test system: NF-κB mediated gene transcription; settings: read-out: NF-κB-luc IC50; Table 1; cell culture, previously reported; cited from earlier work
[4] = molecular target: purified human 20S proteasome (Homo sapiens, UniProt P28074); assay: Inhibition of the chymotryptic-like activity of purified human 20S proteasome; format: biochemical
[5] = test system: human myelomonocytic THP-1 cells; assay: Cell viability, THP-1 wild type cells, 72 hours; format: cell-based; settings: screened at 10 μM and 5 μM

Structure (SMILES): CC(C)C[C@H](NC(=O)[C@H](Cc1ccccc1)NC(=O)c1cnccn1)B(O)O [Bortezomib, bortezomib, reference compound]
IC50 (proteasome): […] | % cell viability Resistant ([1]; BTZ500, bortezomib at 0.5 μM, 72 hours): unable to induce significant cytotoxicity

Structure (SMILES): c1ccc(CN2C(c3ccccc3)=N[C@H](c3ccccc3)[C@H]2c2ccccc2)cc1 [compound 2]
stability upon standing [2]: slowly isomerised and dehydrogenated

Structure (SMILES): CCOC(=O)[C@]1(c2ccccc2)N=C(c2ccccc2)N(C(C)=O)[C@@H]1c1ccccc1 [compound 12]
proteasome inhibitory activity (in words) [4]: depleted of activity

Structure (SMILES): CCOC(=O)[C@]1(c2ccccc2)N=C(c2ccccc2)N(Cc2ccccc2)[C@@H]1c1ccncc1 [compound 20]
proteasome inhibitory activity (in words) [4]: inactive

Structure (SMILES): CCOC(=O)[C@]1(c2ccccc2)N=C(c2ccc(OC)cc2)N(Cc2ccccc2)[C@@H]1c1ccc(N)cc1 [compound 37]
cytotoxic activity (in words), THP-1 wild type [5]: weak cytotoxic activity | cytotoxic activity (in words), bortezomib-resistant BTZ500 ([1]; screened at 10 μM and 5 μM): weak cytotoxic activity

The next lines start with results.

proteasome inhibitory activity (in words) [4]: depleted of activity
Structure (SMILES): c1ccc(CN2C(c3ccccc3)=N[C@@H](c3ccccc3)[C@H]2c2ccccc2)cc1 [compound 3]
IC50 [3]: > 10 µM | stability upon standing [2]: slowly isomerised and dehydrogenated

proteasome inhibitory activity (in words) [4]: depleted of activity
Structure (SMILES): c1ccc(CN2CCN=C2c2ccccc2)cc1 [compound 4]
IC50 [3]: > 10 µM

proteasome inhibitory activity (in words) [4]: depleted of activity
Structure (SMILES): c1ccc(Cn2c(-c3ccccc3)nc(-c3ccccc3)c2-c2ccccc2)cc1 [compound 5]
IC50 [3]: > 10 µM

proteasome inhibitory activity (in words) [4]: depleted of all activity
Structure (SMILES): CCOC(=O)[C@]1(c2ccccc2)N=C(c2ccccc2)N[C@@H]1c1ccccc1 [compound 11]

proteasome inhibitory activity (in words) [4]: depleted of activity
Structure (SMILES): CCOC(=O)[C@]1(c2ccccc2)N=C(c2ccccc2)N(C(=O)c2ccccc2)[C@@H]1c1ccccc1 [compound 13]

proteasome inhibitory activity (in words) [4]: depleted of activity
Structure (SMILES): CCOC(=O)[C@]1(c2ccccc2)N=C(c2ccccc2)N(S(=O)(=O)c2ccc(C)cc2)[C@@H]1c1ccccc1 [compound 14]

IC50 ([4]; IC50 proteasome inhibition): 500 nM
Structure (SMILES): CCOC(=O)[C@]1(c2ccccc2)N=C(c2ccccc2)N(Cc2ccccc2)[C@@H]1c1ccc(NCc2ccccc2)cc1 [compound 29]

— publication PMC3844044 (Journal of medicinal chemistry, 2013)
